This note sets out measurements from patent US10383931B2, “Peptides and combination of peptides for use in immunotherapy against cancers” (IMMATICS BIOTECHNOLOGIES GMBH, priority 2016, dated 2019).

The target of the test is HLA-A*02:01 (Homo sapiens, UniProt P04439, D140Y/D185E/D98H/E176V/E277Q/G131W/G231S/I119V/I121R/I166T/I218V/L300P/L318F/N151K/N90K/P208A/P217A/Q86G/Q94H/R138H/R169H/T345S). Description: ELISA-based assay of affinity (KD) to HLA-A*02:01. It is filed as binding. As to conditions: FIG. 5. For orientation: In an ELISA, binding on a coated surface is turned into a signal by an enzyme label.

Take “KIQEILTQV [IGF2BP3-001, HLA-A*02-presented tumor-associated peptide]”: the “binding to HLA-A*02:01 (dissociation constant KD, in words)” value is recorded as “very good binding”.
To “MET-001: control peptide, strong binder to HLA-A*02:01 (YVDPVITSI)” belongs “strong binder”.
